In ChEMBL document CHEMBL3044753, “Polyamines May Modulate Both G Protein-Coupled Receptors and G Proteins” (Med Chem Res, 2004):
The source made the active and inactive calls. No cut-off for these calls is given here.

What was measured:
Left cardiac atrium [1] = assay: Negative ionotropic activity in electrically-paced Cavia porcellus (guinea pig) left atrium measured immediately by isometric transducer analysis in absence of benzalkonium/prazosin; assay type: functional, tissue-based
Right cardiac atrium [2] = assay: Negative […] activity in electrically-paced Cavia porcellus (guinea pig) right atrium measured immediately by isometric transducer analysis in presence of atropine; assay type: functional, tissue-based
Left cardiac atrium [3] = assay: Negative […] activity in electrically-paced Cavia porcellus (guinea pig) left atrium measured immediately by isometric transducer analysis in presence of pimozide; assay type: functional, tissue-based
Left cardiac atrium [4] = assay: Negative […] activity in electrically-paced Cavia porcellus (guinea pig) left atrium measured immediately by isometric transducer analysis in presence of prazosin; assay type: functional, tissue-based
Right cardiac atrium [5] = assay: Negative […] activity in electrically-paced Cavia porcellus (guinea pig) right atrium measured immediately by isometric transducer analysis in presence of DPCPX; assay type: functional, tissue-based
Right cardiac atrium [6] = assay: Negative ionotropic activity in electrically-paced Cavia porcellus (guinea pig) right atrium measured immediately by isometric transducer analysis in presence of prazosin; assay type: functional, tissue-based
Left cardiac atrium [7] = assay: Negative […] activity in electrically-paced Cavia porcellus (guinea pig) left atrium measured immediately by isometric transducer analysis in presence of benzalkonium; assay type: functional, tissue-based
Right cardiac atrium [8] = assay: Negative ionotropic activity in electrically-paced Cavia porcellus (guinea pig) right atrium assessed as effect on force measured immediately by isometric transducer analysis in presence of benzalkonium/prazosin; assay type: functional, tissue-based
Right cardiac atrium [9] = assay: Negative ionotropic activity in electrically-paced Cavia porcellus (guinea pig) right atrium assessed as effect on force measured immediately by isometric transducer analysis in absence of benzalkonium/prazosin; assay type: functional, tissue-based
Right cardiac atrium [10] = assay: Negative […] activity in electrically-paced Cavia porcellus (guinea pig) right atrium assessed as effect on rate measured immediately by isometric transducer analysis in absence of benzalkonium/prazosin; assay type: functional, tissue-based
Left cardiac atrium [11] = assay: Negative ionotropic activity in electrically-paced Cavia porcellus (guinea pig) left atrium measured immediately by isometric transducer analysis in presence of AM 251; assay type: functional, tissue-based
Right cardiac atrium [12] = assay: Negative […] activity in electrically-paced Cavia porcellus (guinea pig) right atrium measured immediately by isometric transducer analysis in presence of benzalkonium; assay type: functional, tissue-based
Left cardiac atrium [13] = assay: Negative […] activity in electrically-paced Cavia porcellus (guinea pig) left atrium measured immediately by isometric transducer analysis in presence of benextramine; assay type: functional, tissue-based
Right cardiac atrium [14] = assay: Negative ionotropic activity in electrically-paced Cavia porcellus (guinea pig) right atrium assessed as effect on force measured immediately by isometric transducer analysis in absence of benzalkonium/prazosin relative to arecaidine propargyl ester; assay type: functional
Right cardiac atrium [15] = assay: Negative ionotropic activity in electrically-paced Cavia porcellus (guinea pig) right atrium measured immediately by isometric transducer analysis in presence of thioperamide; assay type: functional, tissue-based
Left cardiac atrium [16] = assay: Negative […] activity in electrically-paced Cavia porcellus (guinea pig) left atrium measured immediately by isometric transducer analysis in presence of benzalkonium/prazosin; assay type: functional, tissue-based
Left cardiac atrium [17] = assay: Negative […] activity in electrically-paced Cavia porcellus (guinea pig) left atrium measured immediately by isometric transducer analysis in presence of naloxane; assay type: functional, tissue-based
Right cardiac atrium [18] = assay: Negative […] activity in electrically-paced Cavia porcellus (guinea pig) right atrium measured immediately by isometric transducer analysis in presence of ANR 83; assay type: functional, tissue-based
Left cardiac atrium [19] = assay: Negative ionotropic activity in electrically-paced Cavia porcellus (guinea pig) left atrium measured immediately by isometric transducer analysis in presence of ANR 83; assay type: functional, tissue-based
Right cardiac atrium [20] = assay: Negative […] activity in electrically-paced Cavia porcellus (guinea pig) right atrium measured immediately by isometric transducer analysis in presence of AM 251; assay type: functional, tissue-based
Left cardiac atrium [21] = assay: Negative […] activity in electrically-paced Cavia porcellus (guinea pig) left atrium measured immediately by isometric transducer analysis in presence of dihydroergocristine; assay type: functional, tissue-based
Right cardiac atrium [22] = assay: Reversible negative ionotropic activity in electrically-paced Cavia porcellus (guinea pig) right atrium incubated for few seconds followed by compound washout measured after 3 hr by isometric transducer analysis in absence of benzalkonium/prazosin; assay type: functional, tissue-based
Left cardiac atrium [23] = assay: Negative […] activity in electrically-paced Cavia porcellus (guinea pig) left atrium measured immediately by isometric transducer analysis in presence of methoctramine; assay type: functional, tissue-based
Right cardiac atrium [24] = assay: Negative […] activity in electrically-paced Cavia porcellus (guinea pig) right atrium measured immediately by isometric transducer analysis in presence of AM 630; assay type: functional, tissue-based
Left cardiac atrium [25] = assay: Negative ionotropic activity in electrically-paced Cavia porcellus (guinea pig) left atrium measured immediately by isometric transducer analysis in presence of DPCPX; assay type: functional, tissue-based
Left cardiac atrium [26] = assay: Negative […] activity in electrically-paced Cavia porcellus (guinea pig) left atrium measured immediately by isometric transducer analysis in presence of benzalkonium/prazosin relative to arecaidine propargyl ester; assay type: functional
Left cardiac atrium [27] = assay: Negative […] activity in electrically-paced Cavia porcellus (guinea pig) left atrium measured immediately by isometric transducer analysis in presence of bupranolol; assay type: functional, tissue-based
Left cardiac atrium [28] = assay: Reversible negative ionotropic activity in electrically-paced Cavia porcellus (guinea pig) left atrium incubated for few seconds followed by compound washout measured after 3 hr by isometric transducer analysis in absence of benzalkonium/prazosin; assay type: functional, tissue-based
Right cardiac atrium [29] = assay: Negative ionotropic activity in electrically-paced Cavia porcellus (guinea pig) right atrium measured immediately by isometric transducer analysis in presence of dihydroergocristine; assay type: functional, tissue-based
Right cardiac atrium [30] = assay: Negative […] activity in electrically-paced Cavia porcellus (guinea pig) right atrium measured immediately by isometric transducer analysis in presence of benextramine; assay type: functional, tissue-based
Right cardiac atrium [31] = assay: Negative ionotropic activity in electrically-paced Cavia porcellus (guinea pig) right atrium measured immediately by isometric transducer analysis in presence of pimozide; assay type: functional, tissue-based
Right cardiac atrium [32] = assay: Negative ionotropic activity in electrically-paced Cavia porcellus (guinea pig) right atrium measured immediately by isometric transducer analysis in presence of bupranolol; assay type: functional, tissue-based
Left cardiac atrium [33] = assay: Negative ionotropic activity in electrically-paced Cavia porcellus (guinea pig) left atrium measured immediately by isometric transducer analysis in absence of benzalkonium/prazosin relative to arecaidine propargyl ester; assay type: functional
Right cardiac atrium [34] = assay: Negative […] activity in electrically-paced Cavia porcellus (guinea pig) right atrium assessed as effect on rate measured immediately by isometric transducer analysis in absence of benzalkonium/prazosin relative to arecaidine propargyl ester; assay type: functional
Right cardiac atrium [35] = assay: Negative […] activity in electrically-paced Cavia porcellus (guinea pig) right atrium measured immediately by isometric transducer analysis in presence of 4-DAMP mustard; assay type: functional, tissue-based
Right cardiac atrium [36] = assay: Negative ionotropic activity in electrically-paced Cavia porcellus (guinea pig) right atrium assessed as effect on force measured immediately by isometric transducer analysis in presence of benzalkonium/prazosin relative to arecaidine propargyl ester; assay type: functional
Left cardiac atrium [37] = assay: Negative ionotropic activity in electrically-paced Cavia porcellus (guinea pig) left atrium measured immediately by isometric transducer analysis in presence of 4-DAMP mustard; assay type: functional, tissue-based
Right cardiac atrium [38] = assay: Negative […] activity in electrically-paced Cavia porcellus (guinea pig) right atrium assessed as effect on rate measured immediately by isometric transducer analysis in presence of benzalkonium/prazosin relative to arecaidine propargyl ester; assay type: functional
Left cardiac atrium [39] = assay: Negative ionotropic activity in electrically-paced Cavia porcellus (guinea pig) left atrium measured immediately by isometric transducer analysis in presence of AM 630; assay type: functional, tissue-based
Right cardiac atrium [40] = assay: Negative […] activity in electrically-paced Cavia porcellus (guinea pig) right atrium measured immediately by isometric transducer analysis in presence of […]; assay type: functional, tissue-based
Left cardiac atrium [41] = assay: Negative […] activity in electrically-paced Cavia porcellus (guinea pig) left atrium measured immediately by isometric transducer analysis in presence of atropine; assay type: functional, tissue-based
Left cardiac atrium [42] = assay: Negative […] activity in electrically-paced Cavia porcellus (guinea pig) left atrium measured immediately by isometric transducer analysis in presence of thioperamide; assay type: functional, tissue-based

COc1ccccc1CN1CCC(C2CCN(C(=O)CCCCCCC(=O)N3CCC(C4CCN(Cc5ccccc5OC)CC4)CC3)CC2)CC1 [PIPERTRAMINE AMIDE]
EC50 (Left cardiac atrium [1]): 0.0316 nM | Activity (Right cardiac atrium [2]): inactive | Activity (Left cardiac atrium [3]): Active | Activity (Left cardiac atrium [4]): Active | Activity (Right cardiac atrium [5]): Active | Activity (Right cardiac atrium [6]): Active | Activity (Left cardiac atrium [7]): Active | EC50 (Right cardiac atrium [8]): 2.29 nM | EC50 (Right cardiac atrium [9]): 1.55 nM | EC50 (Right cardiac atrium [10]): 0.977 nM | Activity (Left cardiac atrium [11]): Active | Activity (Right cardiac atrium [12]): Active | Activity (Left cardiac atrium [13]): Active | Efficacy (Right cardiac atrium [14]): 79% | Activity (Right cardiac atrium [15]): Active | EC50 (Left cardiac atrium [16]): 0.0417 nM | Activity (Left cardiac atrium [17]): Active | Activity (Right cardiac atrium [18]): Active | Activity (Left cardiac atrium [19]): Active | Activity (Right cardiac atrium [20]): Active | Activity (Left cardiac atrium [21]): Active | Activity (Right cardiac atrium [22]): Active | Activity (Left cardiac atrium [23]): inactive | Activity (Right cardiac atrium [24]): Active | Activity (Left cardiac atrium [25]): Active | Efficacy (Left cardiac atrium [26]): 60% | Activity (Left cardiac atrium [27]): Active | Activity (Left cardiac atrium [28]): Active | Activity (Right cardiac atrium [29]): Active | Activity (Right cardiac atrium [30]): Active | Activity (Right cardiac atrium [31]): Active | Activity (Right cardiac atrium [32]): Active | Efficacy (Left cardiac atrium [33]): 58% | Efficacy (Right cardiac atrium [34]): 37% | Activity (Right cardiac atrium [35]): inactive | Efficacy (Right cardiac atrium [36]): 81% | Activity (Left cardiac atrium [37]): inactive | Efficacy (Right cardiac atrium [38]): 42% | Activity (Left cardiac atrium [39]): Active | Activity (Right cardiac atrium [40]): Active | Activity (Left cardiac atrium [41]): inactive | Activity (Left cardiac atrium [42]): Active
